Test results: PMC8412337, “Alpha-single chains of collagen type VI inhibit the fibrogenic effects of triple helical collagen VI in hepatic stellate cells” (PLoS ONE, 2021)

Assays:
[1] = system: primary rat HSC; assay: FACS analysis of apoptosis (propidium iodide DNA content); assay type: cell-based
Protocol: Activated HSC (third passage) were serum starved for 24 h in standard medium without FBS (starving medium), followed by dissociation with 500 μl 0.05% trypsin-EDTA (Biochrom, Berlin, Germany) and neutralization with 30 ml starving medium containing 1 g/l soybean trypsin inhibitor and 1 g/l ovalbumin. Alternatively, cells were scraped carefully with a cell-scraper (Costar, Cambridge, MA, USA) to exclude any potential effect of trypsin. After centrifugation at 800 x g for 10 min, cells were washed twice with 20 ml PBS (w/o Ca^2+, Mg^2+; Biochrom, Berlin, Germany), resuspended in starving medium and plated at a density of 1.5-2x10^6 in 1.7 ml starving medium in 6-well plates (NUNC, Wiesbaden, Germany). Cells were then treated with starving medium, soluble CI or CVI (both at a final concentration of 30 mg/l), or 10% FBS. For quantification of spreading, cells that had attached were counted 12 hours after plating and spreading efficiency was determined as percentage of plated cells in each group. De-novo DNA synthesis and apoptosis were assessed by morphological criteria, Cell death detection ELISA and FACS analysis as described below. […] After blocking the cells 1h with DMEM+1% FBS, the cells were incubated with primary antibodies against a-actin (Sigma-Aldrich, Taufkirchen, Germany, #A2547; dilution 1:200) and GFAP (Sigma-Aldrich, #G9269; dilution 1:20) followed by a washing step with PBS and the incubation with fluorescence-labeled secondary antibodies (Alexa Fluor 546 & Alexa Fluor 488, Molecular Probes, Eugene, USA, #A11030 & #A11034; dilution 1:100). […] Cells were analyzed by fluorescence microscopy (Zeiss, Jena, Germany; Kodak Ektachrome P1600 and a quantitative staining analysis was performed using Image J software (version 1.50i; National Institutes of Health, Bethesda, […], USA).
10^5 of freshly set cells were treated with starving medium, CI, CVI or 10% FBS for 24 or 48 hours as described before. […] Fixed cells were stained with propidium iodide (50 mg/l) in a final volume of 1 ml before being subjected to fluorescence activated cell sorting (FACS) analysis.

[2] = system: CFSC (rat HSC cell line); assay: [3H]-thymidine incorporation, de-novo DNA synthesis; assay type: cell-based; parameters: proliferative effect of reconstituted CVI after denaturation and refolding: dose or concentration left out as unconfirmed
Protocol: Immediately before use, guanidine hydrochloride (6 mol/l) was cleared over night by activated charcoal (Merck, Darmstadt, Germany) and adjusted to pH 8.0 by adding 50 mmol/l tris(hydroxymethyl)aminomethane (Tris). Freeze dried CVI (10 mg/ml) was mixed with 1 ml Tris-buffered guanidine-hydrochloride, incubated at room temperature for 1 h with frequent thorough vortex followed by 1 h at 37°C. The buffer from the clear supernatant after centrifugation (10.000 x g, 10 min, 4°C) was replaced for 150 mmol/l HAc by gelfiltration (Sephadex-G25; GE Healthcare, Munich, Germany). This procedure regains the biological activity of CVI on CFSC (S1 Fig).
5x10^3CFSC in 100 μl 10% FBS were seeded into a 96-well flat-bottom tissue culture plate (Nunc, Roskilde, Denmark). After 24 hours, medium was completely removed, and cells were rinsed with 200 μl phosphate-buffered saline and 100 μl standard medium containing only 0.25% FBS were added. Cells were cultured for additional 24 h prior to treatment. Synchronized microcultures in 96-well plates were treated for 2 hours in reduction medium. […] [^3H]-thymidine incorporation was measured as described before. […] After neutralization with 800 mmol/l HCl, lysates were collected to a glassfibre mat and the de-novo DNA synthesis was assessed by liquid scintillation (LKB Wallac, Bromma, Sweden) and the radioactive decay was counted (for) a minute (cpm).

CVI: Human collagen VI isolated from placentas by pepsin digestion; triple helical, soluble
fold less apoptosis compared to the CI-treated group ([1]; FACS, CVI-treated versus CI-treated group, p<0.05): approximately 3 fold
percentage of apoptotic cells (FACS) ([1]; serum-starved primary rat HSC, text: within 24 hours, Fig 1C legend: 48 h, propidium iodide, three independent experiments): 25%
de-novo DNA synthesis ([3H]-thymidine incorporation) ([2]; 24 h, n = three independent experiments): induced a comparable increase in de-novo DNA synthesis
proliferative effect of reconstituted CVI after denaturation and refolding ([2]; three independent experiments (S1 Fig)): regains its biological activity
